Measurements from patent publication US20250129104A1, “7H-PYRROLO[2,3-D]PYRIMIDINES AND PREPARATION AND USES THEREOF” (BioSplice Therapeutics, Inc., priority 2021, published 2025).
pEC50: −log10 of the molar value.

The compounds below were run against recombinant DYRK1A kinase (Homo sapiens (Human), UniProt Q13627) (assay: DYRK1A kinase assay (Ser/Thr 18 peptide Z-lyte FRET assay)). Conditions: DYRK1A kinase activity; 15 μM ATP, 1 h room temperature; method text calls the value IC50.
Type: biochemical
How it was run: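 Recombinant human DYRK1A (0.25 μg/mL) with 15 μM ATP and 4 μM Ser/Thr 18 peptide, 1 h at room temperature with compound (11-point, 1:3, 10 μM top, duplicate). Z-lyte development 1 h, then coumarin/fluorescein FRET emission ratio converted to % phosphorylation; IC50 by non-linear regression.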

pEC50	SMILES
6.88	COc1nc(N[C@H]2CC[C@@H](OC(F)(F)F)CC2)nc2[nH]cc(-c3ccc4nccn4c3)c12 [Compound 2246, 5-(Imidazo[1,2-a]pyridin-6-yl)-4-methoxy-N-(cis-4-(trifluoromethoxy)cyclohexyl)-7H-pyrrolo[2,3-d]pyrimidin-2-amine]
7.59	CCOc1nc(N[C@H]2CC[C@@](C)(O)CC2)nc2[nH]cc(-c3ccc4nccn4c3)c12 [Compound 2254, cis-4-((4-Ethoxy-5-(imidazo[1,2-a]pyridin-6-yl)-7H-pyrrolo[2,3-d]pyrimidin-2-yl)amino)-1-methylcyclohexan-1-ol]
7.72	COc1nc(NCC(C)(C)F)nc2[nH]cc(-c3cc(F)c4nccn4c3)c12 [Compound 2255, N-(2-Fluoro-2-methylpropyl)-5-(8-fluoroimidazo[1,2-a]pyridin-6-yl)-4-methoxy-7H-pyrrolo[2,3-d]pyrimidin-2-amine]
7.82	[2H]C([2H])([2H])O[C@H]1CC[C@@H](Nc2nc(OC)c3c(-c4cc(F)c5nccn5c4)c[nH]c3n2)CC1 [Compound 2256, 5-(8-Fluoroimidazo[1,2-a]pyridin-6-yl)-4-methoxy-N-(cis-4-(methoxy-d3)cyclohexyl)-7H-pyrrolo[2,3-d]pyrimidin-2-amine]
6.71	COc1nc(N[C@H]2CC[C@@H](OC(F)F)CC2)nc2[nH]cc(-c3cc(F)c4nccn4c3)c12 [Compound 2258, N-(cis-4-(Difluoromethoxy)cyclohexyl)-5-(8-fluoroimidazo[1,2-a]pyridin-6-yl)-4-methoxy-7H-pyrrolo[2,3-d]pyrimidin-2-amine]
6.61	COc1nc(N[C@H]2CC[C@@H](OC(F)(F)F)CC2)nc2[nH]cc(-c3cc(F)c4nccn4c3)c12 [Compound 2260, 5-(8-Fluoroimidazo[1,2-a]pyridin-6-yl)-4-methoxy-N-(cis-4-(trifluoromethoxy)cyclohexyl)-7H-pyrrolo[2,3-d]pyrimidin-2-amine]
8.00	COc1nc(NC2CCC(F)(F)CC2)nc2[nH]cc(-c3cnc4nccn4c3)c12 [Compound 2268, N-(4,4-Difluorocyclohexyl)-5-(imidazo[1,2-a]pyrimidin-6-yl)-4-methoxy-7H-pyrrolo[2,3-d]pyrimidin-2-amine]
7.11	COc1nc(NCC(C)(C)F)nc2[nH]cc(-c3cnc4nc(C)n(CC(F)F)c4c3)c12 [Compound 2269, 5-(1-(2,2-Difluoroethyl)-2-methyl-1H-imidazo[4,5-b]pyridin-6-yl)-N-(2-fluoro-2-methylpropyl)-4-methoxy-7H-pyrrolo[2,3-d]pyrimidin-2-amine]
6.95	COC[C@@H](C)Nc1nc(OC)c2c(-c3cnc4nc(C)n(CC(F)F)c4c3)c[nH]c2n1 [Compound 2271, (R)-5-(1-(2,2-Difluoroethyl)-2-methyl-1H-imidazo[4,5-b]pyridin-6-yl)-4-methoxy-N-(1-methoxypropan-2-yl)-7H-pyrrolo[2,3-d]pyrimidin-2-amine]
7.21	COc1nc(NC2CCC(F)(F)CC2)nc2[nH]cc(-c3cnc4nc(C)n(CC(F)F)c4c3)c12 [Compound 2272, N-(4,4-Difluorocyclohexyl)-5-(1-(2,2-difluoroethyl)-2-methyl-1H-imidazo[4,5-b]pyridin-6-yl)-4-methoxy-7H-pyrrolo[2,3-d]pyrimidin-2-amine]
6.59	COc1nc(NCC(C)(C)F)nc2[nH]cc(-c3ccc4nc(C)n(CC(F)F)c4n3)c12 [Compound 2276, 5-(3-(2,2-Difluoroethyl)-2-methyl-3H-imidazo[4,5-b]pyridin-5-yl)-N-(2-fluoro-2-methylpropyl)-4-methoxy-7H-pyrrolo[2,3-d]pyrimidin-2-amine]
6.00	COC[C@@H](C)Nc1nc(OC)c2c(-c3ccc4nc(C)n(CC(F)F)c4n3)c[nH]c2n1 [Compound 2278, (R)-5-(3-(2,2-Difluoroethyl)-2-methyl-3H-imidazo[4,5-b]pyridin-5-yl)-4-methoxy-N-(1-methoxypropan-2-yl)-7H-pyrrolo[2,3-d]pyrimidin-2-amine]
6.60	COc1nc(NC2CCC(F)(F)CC2)nc2[nH]cc(-c3ccc4nc(C)n(CC(F)F)c4n3)c12 [Compound 2279, N-(4,4-Difluorocyclohexyl)-5-(3-(2,2-difluoroethyl)-2-methyl-3H-imidazo[4,5-b]pyridin-5-yl)-4-methoxy-7H-pyrrolo[2,3-d]pyrimidin-2-amine]
6.57	COc1nc(N[C@H]2CC[C@@H](OC(F)F)CC2)nc2[nH]cc(-c3ccc4nc(C)n(CC(F)F)c4n3)c12 [Compound 2281, 5-(3-(2,2-Difluoroethyl)-2-methyl-3H-imidazo[4,5-b]pyridin-5-yl)-N-(cis-4-(difluoromethoxy)cyclohexyl)-4-methoxy-7H-pyrrolo[2,3-d]pyrimidin-2-amine]
7.32	COc1nc(NCC(C)(C)F)nc2[nH]cc(-c3ccc4nnn(C)c4c3)c12 [Compound 2283, N-(2-Fluoro-2-methylpropyl)-4-methoxy-5-(1-methyl-1H-benzo[d][1,2,3]triazol-6-yl)-7H-pyrrolo[2,3-d]pyrimidin-2-amine]
7.08	COc1nc(NC2CCC(F)(F)CC2)nc2[nH]cc(-c3ccc4nnn(C)c4c3)c12 [Compound 2284, N-(4,4-Difluorocyclohexyl)-4-methoxy-5-(1-methyl-1H-benzo[d][1,2,3]triazol-6-yl)-7H-pyrrolo[2,3-d]pyrimidin-2-amine]
6.70	[2H]C([2H])([2H])O[C@H]1CC[C@@H](Nc2nc(OC)c3c(-c4ccc5nnn(C)c5c4)c[nH]c3n2)CC1 [Compound 2285, 4-Methoxy-N-(cis-4-(methoxy-d3)cyclohexyl)-5-(1-methyl-1H-benzo[d][1,2,3]triazol-6-yl)-7H-pyrrolo[2,3-d]pyrimidin-2-amine]
6.62	COc1nc(N[C@H]2CC[C@@H](OC(F)F)CC2)nc2[nH]cc(-c3ccc4nnn(C)c4c3)c12 [Compound 2287, N-(cis-4-(Difluoromethoxy)cyclohexyl)-4-methoxy-5-(1-methyl-1H-benzo[d][1,2,3]triazol-6-yl)-7H-pyrrolo[2,3-d]pyrimidin-2-amine]
5.83	COc1nc(N[C@H]2CC[C@@H](OC(F)(F)F)CC2)nc2[nH]cc(-c3ccc4nnn(C)c4c3)c12 [Compound 2289, 4-Methoxy-5-(1-methyl-1H-benzo[d][1,2,3]triazol-6-yl)-N-(cis-4-(trifluoromethoxy)cyclohexyl)-7H-pyrrolo[2,3-d]pyrimidin-2-amine]
7.63	COC[C@@H](C)Nc1nc(OC)c2c(-c3ccc4nnn(CC(F)F)c4c3)c[nH]c2n1 [Compound 2294, (R)-5-(1-(2,2-Difluoroethyl)-1H-benzo[d][1,2,3]triazol-6-yl)-4-methoxy-N-(1-methoxypropan-2-yl)-7H-pyrrolo[2,3-d]pyrimidin-2-amine]
6.93	COc1nc(NCC(C)(C)F)nc2[nH]cc(-c3ccc4nccn4n3)c12 [Compound 2298, N-(2-Fluoro-2-methylpropyl)-5-(imidazo[1,2-b]pyridazin-6-yl)-4-methoxy-7H-pyrrolo[2,3-d]pyrimidin-2-amine]
6.64	COC[C@@H](C)Nc1nc(OC)c2c(-c3ccc4nccn4n3)c[nH]c2n1 [Compound 2300, (R)-5-(Imidazo[1,2-b]pyridazin-6-yl)-4-methoxy-N-(1-methoxypropan-2-yl)-7H-pyrrolo[2,3-d]pyrimidin-2-amine]
